Measurements from US20240228488A1 (TAKEDA PHARMACEUTICAL COMPANY LIMITED, priority 2021, published 2024).

What follows are compounds tested against human activated kallikrein enzyme (Homo sapiens, UniProt P03952) (assay: Plasma kallikrein inhibition, fluorogenic PFR-AMC substrate, 500 pM activated kallikrein format). Details: 500 pM activated kallikrein, 300 uM PFR-AMC, 30 min preincubation, 10 min reaction; read-out: Primary Dose Response Assay: Average EC50.
Assay type: biochemical
How it was run: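 Enzyme at 500 pM preincubated 30 min RT with inhibitors in 20 mM Tris pH 7.5, 1 mM EDTA, 150 mM NaCl, 0.1% PEG-400, 0.1% Triton X-100. Reaction started with 300 uM PFR-AMC, run 10 min RT; fluorescence read at 460 nm emission, 380 nm excitation. EC50 reported in ranges.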

Sequence of human activated kallikrein enzyme (P03952 391-638 limits assumed): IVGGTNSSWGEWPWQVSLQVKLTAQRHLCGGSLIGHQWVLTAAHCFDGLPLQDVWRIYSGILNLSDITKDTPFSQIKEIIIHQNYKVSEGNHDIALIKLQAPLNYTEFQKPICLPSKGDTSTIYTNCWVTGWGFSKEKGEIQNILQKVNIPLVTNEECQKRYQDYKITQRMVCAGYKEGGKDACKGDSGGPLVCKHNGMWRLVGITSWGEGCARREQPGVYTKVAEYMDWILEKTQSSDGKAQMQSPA
Sequence of human activated kallikrein enzyme (P03952 20-390 partner limits assumed): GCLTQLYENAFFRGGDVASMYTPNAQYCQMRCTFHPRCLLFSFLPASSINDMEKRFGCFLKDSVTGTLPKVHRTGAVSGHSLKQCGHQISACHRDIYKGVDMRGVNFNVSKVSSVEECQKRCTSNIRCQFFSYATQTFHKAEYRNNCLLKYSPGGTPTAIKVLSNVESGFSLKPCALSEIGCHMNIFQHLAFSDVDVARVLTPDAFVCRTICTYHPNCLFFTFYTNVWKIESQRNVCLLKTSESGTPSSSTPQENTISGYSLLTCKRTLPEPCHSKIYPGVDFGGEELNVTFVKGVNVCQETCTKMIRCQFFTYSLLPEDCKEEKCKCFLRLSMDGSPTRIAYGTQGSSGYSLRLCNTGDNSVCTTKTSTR

| SMILES | EC50 |
| --- | --- |
| O=C(Nc1cc(N2C[C@@H](O)C[C@@H]2c2cn3cc(C4CC4)ccc3n2)ncn1)[C@H]1C[C@@H]1c1cc(Cl)ccn1 (single isomer, unassigned; isomer 1) [Example I-248, (1S*,2S*)-2-(4-chloropyridin-2-yl)-N-(6-((2R,4S)-2-(6-cyclopropylimidazo[1,2-a]pyridin-2-yl)-4-hydroxypyrrolidin-1-yl)pyrimidin-4-yl)cyclopropane-1-carboxamide, isomer 1] | 1000 to 6000 nM |
| O=C(Nc1cc(NCc2cn3cc(C4CC4)ccc3n2)ncn1)[C@H]1C[C@@H]1c1cccc(Cl)c1F (racemic) [Example 43, rac-(1S*,2S*)-2-(3-chloro-2-fluorophenyl)-N-(6-(((6-cyclopropylimidazo[1,2-a]pyridin-2-yl)methyl)amino)pyrimidin-4-yl)cyclopropane-1-carboxamide] | 10 to 100 nM |
| COc1ccc(C#N)c([C@H]2C[C@@H]2C(=O)Nc2cc(NCc3cn4cc(C5CC5)ccc4n3)ccn2)c1 (racemic) [Example I-206, rac-(1S*,2S*)-2-(2-cyano-5-methoxyphenyl)-N-(4-(((6-cyclopropylimidazo[1,2-a]pyridin-2-yl)methyl)amino)pyridin-2-yl)cyclopropane-1-carboxamide] | 10 to 100 nM |
| C[C@H]1[C@H](C(=O)Nc2cc(NCc3cn4cc(C5CC5)ccc4n3)ncn2)[C@H]1c1cccc(Cl)c1 (single isomer, unassigned) [Example 508, (1R*,2R*,3S*)-2-(3-chlorophenyl)-N-(6-(((6-cyclopropylimidazo[1,2-a]pyridin-2-yl)methyl)amino)pyrimidin-4-yl)-3-methylcyclopropane-1-carboxamide] | > 6000 nM |
| O=C(Nc1cc(NCc2cn3cc(C4CC4)ccc3n2)ncn1)[C@@H]1C[C@]12CCc1ccc(Cl)cc12 (racemic) [Example I-183, rac-(1R*,2R*)-6′-chloro-N-(6-(((6-cyclopropylimidazo[1,2-a]pyridin-2-yl)methyl)amino)pyrimidin-4-yl)-2′,3′-dihydrospiro[cyclopropane-1,1′-indene]-2-carboxamide] | 10 to 100 nM |
| COc1ccc(Cl)cc1[C@H]1C[C@@H]1C(=O)Nc1cc(NCc2cn3cc(C4CC4)ccc3n2)ncn1 (racemic) [Example 47, rac-(1S*,2S*)-2-(5-chloro-2-methoxyphenyl)-N-(6-(((6-cyclopropylimidazo[1,2-a]pyridin-2-yl)methyl)amino)pyrimidin-4-yl)cyclopropane-1-carboxamide] | 100 to 1000 nM |
| CC(=O)OC(Cc1cn2cc(C3CC3)cc(N3CC(=O)N(C)C3=O)c2n1)c1cc(NC(=O)[C@H]2C[C@@H]2c2nccc(C)n2)nc(C)n1 (stereo partly drawn) [Example 673, 2-(6-cyclopropyl-8-(3-methyl-2,4-dioxoimidazolidin-1-yl)imidazo[1,2-a]pyridin-2-yl)-1-(2-methyl-6-((1S,2S)-2-(4-methylpyrimidin-2-yl)cyclopropane-1-carboxamido)pyrimidin-4-yl)ethyl acetate] | 100 to 1000 nM |
| O=C(Nc1cncnc1NCc1cn2cc(C3CC3)ccc2n1)[C@H]1C[C@@H]1c1cccc(Cl)c1 (racemic) [Example 78, rac-(1S*,2S*)-2-(3-chlorophenyl)-N-(4-(((6-cyclopropylimidazo[1,2-a]pyridin-2-yl)methyl)amino)pyrimidin-5-yl)cyclopropane-1-carboxamide] | 100 to 1000 nM |
| Nc1cc(Cl)cc([C@H]2C[C@@H]2C(=O)Nc2cc(NCc3cn4cc(C5CC5)ccc4n3)ncn2)c1 (single isomer, unassigned) [Example I-257, rac-(1S*,2S*)-2-(3-amino-5-chlorophenyl)-N-(6-(((6-cyclopropylimidazo[1,2-a]pyridin-2-yl)methyl)amino)pyrimidin-4-yl)cyclopropane-1-carboxamide] | 1 to 10 nM |
| CS(=O)(=O)c1nc(NCc2cn3cc(C4CC4)ccc3n2)cc(NC(=O)[C@H]2C[C@@H]2c2cccc(Cl)c2)n1 (racemic) [Example 110, rac-(1S*,2S*)-2-(3-chlorophenyl)-N-(6-(((6-cyclopropylimidazo[1,2-a]pyridin-2-yl)methyl)amino)-2-(methylsulfonyl)pyrimidin-4-yl)cyclopropane-1-carboxamide] | 10 to 100 nM |
| O=C(Nc1nccc2nn(Cc3cn4cc(C5CC5)ccc4n3)cc12)[C@H]1C[C@@H]1c1cc(Cl)ccc1[N+](=O)[O-] (racemic) [Example 578, rac-(1S*,2S*)-2-(5-chloro-2-nitrophenyl)-N-(2-((6-cyclopropylimidazo[1,2-a]pyridin-2-yl)methyl)-2H-pyrazolo[4,3-c]pyridin-4-yl)cyclopropane-1-carboxamide] | 1 to 10 nM |

Further lines, results first:

| EC50 | SMILES |
| --- | --- |
| < 1 nM | Cc1cc(NC(=O)[C@H]2C[C@@H]2c2nccc(C)n2)cc(N[C@H](C)c2cn3cc(C4CC4)cc(N4CC(=O)N(C)C4=O)c3n2)n1 [Example I-246, (1S,2S)-N-(2-(((R)-1-(6-cyclopropyl-8-(3-methyl-2,4-dioxoimidazolidin-1-yl)imidazo[1,2-a]pyridin-2-yl)ethyl)amino)-6-methylpyridin-4-yl)-2-(4-methylpyrimidin-2-yl)cyclopropane-1-carboxamide] |
| 1 to 10 nM | CC(=O)N1CCN(c2cc(C3CC3)cn3cc(CNc4cc(NC(=O)[C@H]5C[C@@H]5c5cccc(Cl)c5)ncn4)nc23)CC1 [Example I-1, (1S,2S)—N-(6-(((8-(4-acetylpiperazin-1-yl)-6-cyclopropylimidazo[1,2-a]pyridin-2-yl)methyl)amino)pyrimidin-4-yl)-2-(3-chlorophenyl)cyclopropane-1-carboxamide] |
| 1 to 10 nM | O=C(Nc1cc(NCc2cn3cc(C4CC4)ccc3n2)ccn1)[C@H]1[C@H](CO)[C@@H]1c1cccc(Cl)c1 (racemic) [Example I-213, rac-(1R*,2S*,3R*)-2-(3-chlorophenyl)-N-(4-(((6-cyclopropylimidazo[1,2-a]pyridin-2-yl)methyl)amino)pyridin-2-yl)-3-(hydroxymethyl)cyclopropane-1-carboxamide] |
| < 1 nM | O=C(Nc1cc(NCc2cn3cc(C4CC4)cc(N4CCCS4(=O)=O)c3n2)ccn1)[C@H]1C[C@@H]1c1cccc(Cl)c1 [Example 121] |
| < 1 nM | Cc1ccnc([C@H]2C[C@@H]2C(=O)Nc2cc(N[C@H](C)c3cn4cc(Cl)cc(N5CC(=O)N(C)C5=O)c4n3)ncn2)n1 [Example 421, (1S,2S)-N-(6-(((R)-1-(6-chloro-8-(3-methyl-2,4-dioxoimidazolidin-1-yl)imidazo[1,2-a]pyridin-2-yl)ethyl)amino)pyrimidin-4-yl)-2-(4-methylpyrimidin-2-yl)cyclopropane-1-carboxamide] |
| 1 to 10 nM | O=C(Nc1cc(NCc2cn3cc(C4CC4)cc(N4CC(F)(F)C4)c3n2)ccn1)[C@H]1C[C@@H]1c1cccc(Cl)c1 [Example 124, (1S,2S)-2-(3-chlorophenyl)-N-(4-(((6-cyclopropyl-8-(3,3-difluoroazetidin-1-yl)imidazo[1,2-a]pyridin-2-yl)methyl)amino)pyridin-2-yl)cyclopropane-1-carboxamide] |
| < 1 nM | Cc1ccnc([C@H]2C[C@@H]2C(=O)Nc2cnnc(OCc3cn4cc(C5CC5)cc(N5CC(=O)N(C)C5=O)c4n3)c2)n1 [Example I-648, (1S,2S)—N-(6-((6-cyclopropyl-8-(3-methyl-2,4-dioxoimidazolidin-1-yl)imidazo[1,2-a]pyridin-2-yl)methoxy)pyridazin-4-yl)-2-(4-methylpyrimidin-2-yl)cyclopropane-1-carboxamide] |
| 1 to 10 nM | O=C(Nc1nccc(NCc2cn3cc(C4CC4)ccc3n2)n1)[C@H]1C[C@@H]1c1cccc(Cl)c1 (racemic) [Example 346, (rac-(1S*,2S*))-2-(3-chlorophenyl)-N-(4-(((6-cyclopropylimidazo[1,2-a]pyridin-2-yl)methyl)amino)pyrimidin-2-yl)cyclopropane-1-carboxamide] |
| < 1 nM | Cc1ccnc([C@H]2C[C@@H]2C(=O)Nc2cc(N[C@H](C)c3cn4cc(C5CC5)cc(N5CC6(COC6)N(C)C5=O)c4n3)nc(C)n2)n1 [Example 435, (1S,2S)-N-(6-(((R)-1-(6-cyclopropyl-8-(5-methyl-6-oxo-2-oxa-5,7-diazaspiro[3.4]octan-7-yl)imidazo[1,2-a]pyridin-2-yl)ethyl)amino)-2-methylpyrimidin-4-yl)-2-(4-methylpyrimidin-2-yl)cyclopropane-1-carboxamide] |
| 1 to 10 nM | O=C(Nc1nccc2nn(Cc3cn4cc(C5CC5)ccc4n3)cc12)[C@H]1C[C@@H]1c1cccc(Cl)c1 [Example 580, (1S,2S)-2-(3-chlorophenyl)-N-(2-((6-cyclopropylimidazo[1,2-a]pyridin-2-yl)methyl)-2H-pyrazolo[4,3-c]pyridin-4-yl)cyclopropane-1-carboxamide] |
| < 1 nM | N#Cc1ccc(Cl)cc1[C@H]1C[C@@H]1C(=O)Nc1cc(NCc2cn3cc(C4CC4)cc(N4CCCC4=O)c3n2)ncn1 (racemic) [Example 334] |
| < 1 nM | Cc1ccnc([C@H]2C[C@@H]2C(=O)Nc2nncc(OC(C)c3cn4cc(C5CC5)cc(N5CC(=O)N(C)C5=O)c4n3)n2)n1 (stereo partly drawn) [Example 672, (1S,2S)—N-(5-(1-(6-cyclopropyl-8-(3-methyl-2,4-dioxoimidazolidin-1-yl)imidazo[1,2-a]pyridin-2-yl)ethoxy)-1,2,4-triazin-3-yl)-2-(4-methylpyrimidin-2-yl)cyclopropane-1-carboxamide] |
| < 1 nM | O=C(Nc1cc(NCc2cn3cc(C4CC4)ccc3n2)ccn1)[C@@H]1C[C@]12CCc1ccc(Cl)cc12 (single isomer, unassigned) [Example I-273, rac-(1S*,2S*)-6′-chloro-N-(4-(((6-cyclopropylimidazo[1,2-a]pyridin-2-yl)methyl)amino)pyridin-2-yl)-2′,3′-dihydrospiro[cyclopropane-1,1′-indene]-2-carboxamide] |

Same assay, conditions: comparative compounds, 500 pM activated kallikrein format; read-out: Primary Dose Response Assay: Average EC50

| EC50 | SMILES |
| --- | --- |
| 1000 to 6000 nM | O=C(N[C@H]1C[C@@H]1c1cccc(Cl)c1)c1cc(NCc2cn3cc(C4CC4)ccc3n2)ncn1 |
